Q: With CCOc1ccc(C2NC(=O)NC=C2C(=O)c2cc(OC)c(OC)c(OC)c2)cc1 (stereo not given) as the compound, how does the solubility (mole fraction) (in PEG-400, 298.15 K) read?
A: The solubility (mole fraction) was 0.00513.

Q: And the solubility (mole fraction) (in PEG-400, 303.15 K)?
A: The solubility (mole fraction) was 0.00678.

Q: What about the solubility (mole fraction) (in PEG-400, 308.15 K) of the same compound?
A: The solubility (mole fraction) was 0.0083.

Q: And the solubility (mole fraction) (in PEG-400, 313.15 K)?
A: Its solubility (mole fraction) is 0.0104.

Q: And the solubility (mole fraction) (in PEG-400, 318.15 K)?
A: The solubility (mole fraction) was 0.0122.

Q: And the solubility (mole fraction) (in water, 298.15 K)?
A: The solubility (mole fraction) was 8.04e-06.

Q: What about the solubility (mole fraction) (in water, 303.15 K) of the same compound?
A: The solubility (mole fraction) was 1.11e-05.

Q: What about the solubility (mole fraction) (in water, 308.15 K) of the same compound?
A: The solubility (mole fraction) was 1.52e-05.

Q: And the solubility (mole fraction) (in water, 313.15 K)?
A: Its solubility (mole fraction) is 2.04e-05.

Q: What about the solubility (mole fraction) (in water, 318.15 K) of the same compound?
A: Its solubility (mole fraction) is 2.57e-05.

Source: BigSolDB 2.1
